According to patent publication US20230348426A1, “OXOPYRROLIDINE FPR2 AGONISTS” (Bristol-Myers Squibb Company, priority 2020, published 2023):

Tests used:
human FPR2 = human FPR2 (Homo sapiens (Human), UniProt P25090); experiment: FPR2 cyclic adenosine monophosphate (cAMP) assay; format: cell-based; conditions: CHO cells overexpressing human FPR2; forskolin 5 µM; inhibition of cAMP production; read-out: hFPR2 cAMP2 EC50
Source text: (§1) N-formyl peptide receptors (FPRs) are a family of chemo attractant receptors that facilitate leukocyte response during inflammation. FPRs belong to the seven-transmembrane G protein-coupled receptor superfamily and are linked to inhibitory G-proteins (Gi). Three family members (FPR1, FPR2 and FPR3) have been identified in humans and are predominantly found in myeloid cells with varied distribution and have also been reported in multiple organs and tissues. After agonist binding, the FPRs activate a multitude of physiological pathways, such as intra cellular signaling transduction, Ca^2+ mobilization and transcription. The family interacts with a diverse set of ligands that includes proteins, polypeptides and fatty acid metabolites which activate both pro-inflammatory and pro-resolution downstream responses. FPR2 and FPR1 Cyclic Adenosine Monophosphate (cAMP) Assays were used to measure the activity of the compounds in this patent.
(§2) FPR2 and FPR1 Cyclic Adenosine Monophosphate (cAMP) Assays. A mixture of forskolin (5 µM final for FPR2 or 10 µM final for FPR1) and IBMX (200 µM final) were added to 384-well Proxiplates (Perkin-Elmer) pre-dotted with test compounds in DMSO (1% final) at final concentrations in the range of 0.020 nM to 100 µM. Chinese Hamster Ovary cells (CHO) overexpressing human FPR1 or human FPR2 receptors were cultured in F-12 (Ham’s) medium supplemented with 10% qualified FBS, 250 µg/ml zeocin and 300 µg/ml hygromycin (Life Technologies). Reactions were initiated by adding 2,000 human FPR2 cells per well or 4,000 human FPR1 cells per well in Dulbecco’s PBS (with calcium and magnesium) (Life Technologies) supplemented with 0.1% BSA (Perkin-Elmer). The reaction mixtures were incubated for 30 min at room temperature. The level of intracellular cAMP was determined using the HTRF HiRange cAMP assay reagent kit (Cisbio) according to manufacturer’s instruction. Solutions of cryptate conjugated anti-cAMP and d2 flurorophore-labelled cAMP were made in a supplied lysis buffer separately. Upon completion of the reaction, the cells were lysed with equal volume of the d2-cAMP solution and anti-cAMP solution. After a 1-h room temperature incubation, time-resolved fluorescence intensity was measured using the Envision (Perkin-Elmer) at 400 nm excitation and dual emission at 590 nm and 665 nm. A calibration curve was constructed with an external cAMP standard at concentrations ranging from 1 µM to 0.1 pM by plotting the fluorescent intensity ratio from 665 nm emission to the intensity from the 590 nm emission against cAMP concentrations. The potency and activity of a compound to inhibit cAMP production was then determined by fitting to a 4-parametric logistic equation from a plot of cAMP level versus compound concentrations.

human FPR1 = human FPR1 (Homo sapiens (Human), UniProt P21462); experiment: FPR1 cyclic adenosine monophosphate (cAMP) assay; format: cell-based; conditions: CHO cells overexpressing human FPR1; forskolin 10 µM; inhibition of cAMP production; read-out: hFPR1 cAMP EC50
human FPR1, sequence (P21462 whole entry): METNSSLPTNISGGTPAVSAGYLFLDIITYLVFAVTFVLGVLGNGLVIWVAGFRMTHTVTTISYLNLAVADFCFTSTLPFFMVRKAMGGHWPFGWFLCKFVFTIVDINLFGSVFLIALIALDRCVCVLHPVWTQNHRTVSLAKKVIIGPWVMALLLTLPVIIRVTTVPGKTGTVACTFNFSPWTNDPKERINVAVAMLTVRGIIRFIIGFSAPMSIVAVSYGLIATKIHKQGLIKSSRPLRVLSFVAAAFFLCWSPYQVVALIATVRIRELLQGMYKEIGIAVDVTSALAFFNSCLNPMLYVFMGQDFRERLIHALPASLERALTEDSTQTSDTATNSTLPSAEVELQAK
Source text: as §1
as §2, with “After a 1-h room temperature incubation, time-resolved fluorescence intensity was measured using the Envision (Perkin-Elmer) at 400 nm excitation and dual emission at 590 nm and 665 nm. A calibration curve was constructed with an external cAMP standard at concentrations ranging from 1 µM to 0.1 pM by plotting the fluorescent intensity ratio from 665 nm emission to the intensity from the 590 nm emission against cAMP concentrations.” left out

human FPR2, sequence (P25090 whole entry): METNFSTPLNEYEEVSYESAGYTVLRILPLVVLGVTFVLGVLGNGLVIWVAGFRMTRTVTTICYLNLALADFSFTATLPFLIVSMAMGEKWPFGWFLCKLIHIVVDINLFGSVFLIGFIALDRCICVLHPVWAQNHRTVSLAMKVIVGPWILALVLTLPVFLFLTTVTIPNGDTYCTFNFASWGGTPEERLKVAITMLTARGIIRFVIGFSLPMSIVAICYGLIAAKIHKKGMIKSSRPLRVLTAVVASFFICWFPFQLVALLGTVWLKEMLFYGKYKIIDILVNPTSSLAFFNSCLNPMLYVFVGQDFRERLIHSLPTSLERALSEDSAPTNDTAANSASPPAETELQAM

`COc1cc(F)c([C@@H]2CN(c3ncccc3P(C)(C)=O)C(=O)[C@H]2NC(=O)c2ccc(OC(F)(F)F)cc2)c(F)c1` [Example 22] showed an EC50 (human FPR2) of 13 nM and an EC50 (human FPR1) of 3200 nM.
Work on `COc1cc(F)c([C@@H]2CN(c3c(C)c4c(n(CCO)c3=O)CCCC4)C(=O)[C@H]2NC(=O)c2ccc(Cl)cc2)c(F)c1` [Example 607] yielded an EC50 (human FPR2) of 13.3 nM and an EC50 (human FPR1) of 30 nM.
With `O=C(N[C@@H]1C(=O)N(c2cccn(CCO)c2=O)C[C@H]1c1ccc(Cl)cc1)c1ccc(OC(F)(F)F)cc1` [Example 102] the EC50 (human FPR2) was 2.8 nM and the EC50 (human FPR1) was 4.7 nM.
With `COc1cc(F)c([C@@H]2CN(c3cc(C#N)cn(C)c3=O)C(=O)[C@H]2NC(=O)c2ccc(OC(F)F)cc2)c(F)c1` [Example 330] the EC50 (human FPR2) was 13 nM and the EC50 (human FPR1) was 3700 nM.
`COc1cc(F)c([C@@H]2CN(c3nc(N4C(=O)CC[C@H]4CO)ccc3F)C(=O)[C@H]2NC(=O)c2ccc(OC(F)F)cc2)c(F)c1` [Example 266] was tested, and the EC50 (human FPR2) was 7.6 nM and the EC50 (human FPR1) was 410 nM.
With `COc1cc(F)c([C@@H]2CN(c3cccc(OC(F)F)c3)C(=O)[C@H]2NC(=O)c2ccc(OC(F)(F)F)cc2)c(F)c1` [Example 184] the EC50 (human FPR2) was 4.8 nM and the EC50 (human FPR1) was 9.8 nM.
`COc1cc(F)c([C@H]2[C@H](NC(=O)c3ccc(Cl)cc3)C(=O)N(c3cncn(CC(F)F)c3=O)[C@@H]2C)c(F)c1` [Example 503] was tested, and the EC50 (human FPR2) was 4.3 nM and the EC50 (human FPR1) was 3500 nM.
Compound `COc1cc(F)c([C@@H]2CN(c3cccc(=O)n3C)C(=O)[C@H]2NC(=O)c2ccc(OC(F)F)cc2)c(F)c1` [Example 10] has an EC50 (human FPR2) of 50 nM and an EC50 (human FPR1) of 290 nM.
Compound `COCCn1cccc(N2C(=O)[C@@H](NC(=O)c3ccc(OC(F)(F)F)cc3)[C@H](c3c(F)cc(OC)cc3F)[C@H]2C)c1=O` [Example 200] has an EC50 (human FPR2) of 5.2 nM and an EC50 (human FPR1) of 290 nM.
Work on `COc1cc(F)c([C@@H]2CN(c3ccnc(N4C[C@@H](C)N(C)[C@@H](C)C4)c3C(F)(F)F)C(=O)[C@H]2NC(=O)c2ccc(OC(F)F)cc2)c(F)c1` [Example 152] yielded an EC50 (human FPR2) of 3.9 nM and an EC50 (human FPR1) of 460 nM.
Compound `COc1cc(F)c([C@@H]2CN(c3ccc(CO)[nH]c3=O)C(=O)[C@H]2NC(=O)c2ccc(OC(F)(F)F)cc2)c(F)c1` [Example 240] has an EC50 (human FPR2) of 6.6 nM and an EC50 (human FPR1) of 130 nM.
`COc1cc(F)c([C@@H]2CN(c3cccnc3OC(F)F)C(=O)[C@H]2NC(=O)c2ccc(Cl)cc2)c(F)c1` [Example 123] was tested, and the EC50 (human FPR2) was 3.2 nM and the EC50 (human FPR1) was 41 nM.
Compound `COCCn1cccc(N2C(=O)[C@@H](NC(=O)c3ccc(OC(F)F)cc3)[C@H](c3c(F)cc(OC)cc3F)[C@H]2C)c1=O` [Example 127] has an EC50 (human FPR2) of 3.3 nM and an EC50 (human FPR1) of 390 nM.
For `COc1cc(F)c([C@H]2[C@H](NC(=O)c3ccc(Cl)cc3)C(=O)N(c3cccc(N4CC[C@@H](O)C4)n3)[C@@H]2C)c(F)c1` [Example 545], the EC50 (human FPR2) was 6 nM and the EC50 (human FPR1) was 330 nM.
`COc1cc(F)c([C@@H]2CN(c3nc(N4C[C@H]5C[C@@H]4CN5C)ccc3F)C(=O)[C@H]2NC(=O)c2ccc(OC(F)F)cc2)c(F)c1` [Example 50] showed an EC50 (human FPR2) of 1.2 nM and an EC50 (human FPR1) of 1700 nM.
Work on `COc1cc(F)c([C@@H]2CN(c3nc(N4CCOCC4=O)ccc3F)C(=O)[C@H]2NC(=O)c2ccc(OC(F)(F)F)cc2)c(F)c1` [Example 58] yielded an EC50 (human FPR2) of 1.5 nM and an EC50 (human FPR1) of 3.5 nM.
Compound `COc1cc(F)c([C@@H]2CN(c3cccn(C)c3=O)C(=O)[C@H]2NC(=O)c2ccc(OC(F)F)cc2)c(F)c1` [Example 34] has an EC50 (human FPR2) of 3.8 nM and an EC50 (human FPR1) of 300 nM.
`COc1cc(F)c([C@@H]2CN(c3cccn(CC(O)C(F)(F)F)c3=O)C(=O)[C@H]2NC(=O)c2ccc(OC(F)(F)F)cc2)c(F)c1` (some centres unmarked) [Example 155] was tested, and the EC50 (human FPR2) was 4 nM and the EC50 (human FPR1) was 9.3 nM.
Compound `COc1ccnc(N2C(=O)[C@@H](NC(=O)c3ccc(Cl)cc3)[C@H](c3c(F)cc(OC)cc3F)[C@@H]2C)c1` [Example 432] has an EC50 (human FPR2) of 9.1 nM and an EC50 (human FPR1) of 3800 nM.
For `COc1cc(F)c([C@@H]2CN(c3c(C)ccn(CC4CCOCC4)c3=O)C(=O)[C@H]2NC(=O)c2ccc(OC(F)(F)F)cc2)c(F)c1` [Example 456], the EC50 (human FPR2) was 2.8 nM and the EC50 (human FPR1) was 1 nM.
`COc1cc(F)c([C@@H]2CN(c3cccn(C(F)F)c3=O)C(=O)[C@H]2NC(=O)c2ccc(Cl)cc2)c(F)c1` [Example 94] was tested, and the EC50 (human FPR2) was 2.7 nM and the EC50 (human FPR1) was 95 nM.
Compound `COc1cc(F)c([C@@H]2CN(c3cccn4c(C)nnc34)C(=O)[C@H]2NC(=O)c2ccc(OC(F)(F)F)cc2)c(F)c1` [Example 604] has an EC50 (human FPR2) of 0.5 nM and an EC50 (human FPR1) of 15 nM.
`CCn1cccc(N2C[C@@H](c3c(F)cc(OC)cc3F)[C@H](NC(=O)c3ccc(Cl)cc3)C2=O)c1=O` [Example 98] was tested, and the EC50 (human FPR2) was 2.7 nM and the EC50 (human FPR1) was 43 nM.
With `COc1cc(F)c([C@@H]2CN(c3cccn(CCO)c3=O)C(=O)[C@H]2NC(=O)c2ccc(C)cc2)c(F)c1` [Example 273] the EC50 (human FPR2) was 7.8 nM and the EC50 (human FPR1) was 1400 nM.
Compound `COc1ccc([C@@H]2CN(c3cccn(CC(C)OC)c3=O)C(=O)[C@H]2NC(=O)c2ccc(OC(F)F)cc2)c(F)c1` (some centres unmarked) [Example 418] has an EC50 (human FPR2) of 2.7 nM and an EC50 (human FPR1) of 4 nM.
Work on `COc1cc(F)c([C@@H]2CN(c3c(C)ccn(C4COC4)c3=O)C(=O)[C@H]2NC(=O)c2ccc(OC(F)(F)F)cc2)c(F)c1` [Example 637] yielded an EC50 (human FPR2) of 6.6 nM and an EC50 (human FPR1) of 5.7 nM.
`COc1cc(F)c([C@@H]2CN(c3nccc(NCC(C)O)c3C(F)(F)F)C(=O)[C@H]2NC(=O)c2ccc(OC(F)F)cc2)c(F)c1` (some centres unmarked) [Example 234] was tested, and the EC50 (human FPR2) was 6.3 nM and the EC50 (human FPR1) was 1100 nM.
`COc1cc(F)c([C@@H]2CN(c3c(C)ccn(CCO)c3=O)C(=O)[C@H]2NC(=O)c2ccc(OC(F)F)cc2)c(F)c1` [Example 262] was tested, and the EC50 (human FPR2) was 7.5 nM and the EC50 (human FPR1) was 18 nM.
`COc1cc(CO)nc(N2C[C@@H](c3c(F)cc(OC)cc3F)[C@H](NC(=O)c3ccc(OC(F)F)cc3)C2=O)c1` [Example 586] was tested, and the EC50 (human FPR2) was 9.8 nM and the EC50 (human FPR1) was 1300 nM.
For `COc1ccc([C@@H]2CN(c3c(C)ccn(C(F)F)c3=O)C(=O)[C@H]2NC(=O)c2ccc(OC(F)(F)F)cc2)cc1` [Example 383], the EC50 (human FPR2) was 5.5 nM and the EC50 (human FPR1) was 2 nM.
`COc1ccc([C@@H]2CN(c3cccn(CC(O)C(F)(F)F)c3=O)C(=O)[C@H]2NC(=O)c2ccc(OC(F)F)cc2)cc1` (some centres unmarked) [Example 644] showed an EC50 (human FPR2) of 2.1 nM and an EC50 (human FPR1) of 64 nM.
In the case of `COc1ccc([C@@H]2CN(c3c(C)ccn(CC(F)F)c3=O)C(=O)[C@H]2NC(=O)c2ccc(OC(F)(F)F)cc2)c(F)c1` [Example 182], the EC50 (human FPR2) is reported as 4.8 nM and the EC50 (human FPR1) is reported as 1.8 nM.
In the case of `COc1cc(N2C[C@@H](C)N(C)[C@@H](C)C2)nc(N2C[C@@H](c3c(F)cc(OC)cc3F)[C@H](NC(=O)c3ccc(OC(F)F)cc3)C2=O)c1` [Example 214], the EC50 (human FPR2) is reported as 5.6 nM and the EC50 (human FPR1) is reported as 2400 nM.
`CCn1ccc(C)c(N2C[C@@H](c3c(F)cc(OC)cc3F)[C@H](NC(=O)c3ccc(OC(F)F)cc3)C2=O)c1=O` [Example 197] was tested, and the EC50 (human FPR2) was 5.2 nM and the EC50 (human FPR1) was 1.7 nM.
For `COc1ccc([C@@H]2CN(c3cccn(CC(C)O)c3=O)C(=O)[C@H]2NC(=O)c2ccc(OC(F)(F)F)cc2)cc1` (some centres unmarked) [Example 440], the EC50 (human FPR2) was 1.3 nM and the EC50 (human FPR1) was 11 nM.
Work on `O=C(N[C@@H]1C(=O)N(c2cccn(CCO)c2=O)C[C@H]1c1ccc(Cl)cc1)c1ccc(OC(F)F)cc1` [Example 110] yielded an EC50 (human FPR2) of 2.9 nM and an EC50 (human FPR1) of 20 nM.
In the case of `CCn1nccc(N2C[C@@H](c3ccc(OC)cc3)[C@H](NC(=O)c3ccc(OC(F)(F)F)cc3)C2=O)c1=O` [Example 675], the EC50 (human FPR2) is reported as 5.5 nM and the EC50 (human FPR1) is reported as 5 nM.
